{"source": "ChEMBL document CHEMBL1268888", "about": "“Antiviral activity of 2,3'-anhydro and related pyrimidine nucleosides against hepatitis B virus” (Bioorg Med Chem Lett, 2010)", "key": {"Hepatitis B virus [1]": {"tested_on": "Hepatitis B virus", "test": "Antiviral activity against HBV infected in human 2.2.15 cell at 10 ug/ml", "format": "functional, organism-based", "conditions": "HepG2 2.2.15"}, "Hepatitis B virus [2]": {"tested_on": "Hepatitis B virus", "test": "Antiviral activity against HBV infected in human 2.2.15 cell", "format": "functional, organism-based", "conditions": "HepG2 2.2.15"}, "[3]": {"test": "Cytotoxicity against human HuH7 cells", "format": "cell-based, Huh-7"}, "Hepatitis B virus [4]": {"tested_on": "Hepatitis B virus", "test": "Antiviral activity against HBV infected in duck primary hepatocytes at 10 ug/ml", "format": "functional", "conditions": "Hepatocyte"}, "Hepatitis B virus [5]": {"tested_on": "Hepatitis B virus", "test": "Antiviral activity against HBV infected in duck primary hepatocytes", "format": "functional, organism-based", "conditions": "Hepatocyte"}, "[6]": {"test": "Stability of the compound in PBS buffer at physiological pH and 37 degC upto 48 hrs", "format": "physicochemical"}, "[7]": {"test": "Stability of the compound in fetal bovine serum at 37 degC after 24 hrs", "format": "ADME", "conditions": "cattle"}}, "data": [{"smiles": "CCc1cn([C@@H]2O[C@H](CO)[C@@H](O)[C@@H]2F)c(=O)[nH]c1=O", "values": [{"measurement": "inhibition at 10 µg/mL", "setting": "Hepatitis B virus [1]", "result": 90, "unit": "%"}, {"measurement": "EC50", "setting": "Hepatitis B virus [2]", "result": "< 10", "unit": "µg/mL"}, {"measurement": "CC50", "setting": "[3]", "result": "> 200", "unit": "µg/mL"}]}, {"smiles": "O=c1ccn2c(n1)O[C@H]1C[C@H]2O[C@@H]1CO", "values": [{"measurement": "inhibition at 10 µg/mL", "setting": "Hepatitis B virus [4]", "result": 67, "unit": "%"}, {"measurement": "EC50", "setting": "Hepatitis B virus [5]", "result": 2.5, "unit": "µg/mL"}, {"measurement": "inhibition at 10 µg/mL", "setting": "Hepatitis B virus [1]", "result": 65, "unit": "%"}, {"measurement": "EC50", "setting": "Hepatitis B virus [2]", "result": 5, "unit": "µg/mL"}, {"measurement": "CC50", "setting": "[3]", "result": "> 200", "unit": "µg/mL"}, {"measurement": "Stability", "setting": "[6]", "result": "Stable"}, {"measurement": "Stability", "setting": "[7]", "result": "Stable"}]}, {"smiles": "O=c1nc2n(cc1F)[C@H]1C[C@H](O2)[C@@H](CO)O1", "values": [{"measurement": "inhibition at 10 µg/mL", "setting": "Hepatitis B virus [4]", "result": 30, "unit": "%"}, {"measurement": "inhibition at 10 µg/mL", "setting": "Hepatitis B virus [1]", "result": 0, "unit": "%"}, {"measurement": "CC50", "setting": "[3]", "result": "> 200", "unit": "µg/mL"}, {"measurement": "Stability", "setting": "[6]", "result": "Stable"}, {"measurement": "Stability", "setting": "[7]", "result": "Stable"}]}, {"smiles": "Cc1cn2c(nc1=O)O[C@H]1C[C@H]2O[C@@H]1CO", "values": [{"measurement": "inhibition at 10 µg/mL", "setting": "Hepatitis B virus [4]", "result": 56, "unit": "%"}, {"measurement": "EC50", "setting": "Hepatitis B virus [5]", "result": 10, "unit": "µg/mL"}, {"measurement": "inhibition at 10 µg/mL", "setting": "Hepatitis B virus [1]", "result": 54, "unit": "%"}, {"measurement": "EC50", "setting": "Hepatitis B virus [2]", "result": 10, "unit": "µg/mL"}, {"measurement": "CC50", "setting": "[3]", "result": "> 200", "unit": "µg/mL"}, {"measurement": "Stability", "setting": "[6]", "result": "Stable"}, {"measurement": "Stability", "setting": "[7]", "result": "Stable"}]}, {"smiles": "O=c1nc2n(cc1C(F)(F)F)[C@H]1C[C@H](O2)[C@@H](CO)O1", "values": [{"measurement": "inhibition at 10 µg/mL", "setting": "Hepatitis B virus [4]", "result": 35, "unit": "%"}, {"measurement": "EC50", "setting": "Hepatitis B virus [5]", "result": "> 10", "unit": "µg/mL"}, {"measurement": "inhibition at 10 µg/mL", "setting": "Hepatitis B virus [1]", "result": 25, "unit": "%"}, {"measurement": "CC50", "setting": "[3]", "result": "> 200", "unit": "µg/mL"}, {"measurement": "Stability", "setting": "[6]", "result": "Stable"}, {"measurement": "Stability", "setting": "[7]", "result": "Stable"}]}, {"smiles": "CCc1cn2c(nc1=O)O[C@H]1C[C@H]2O[C@@H]1CO", "values": [{"measurement": "inhibition at 10 µg/mL", "setting": "Hepatitis B virus [4]", "result": 32, "unit": "%"}, {"measurement": "inhibition at 10 µg/mL", "setting": "Hepatitis B virus [1]", "result": 51, "unit": "%"}, {"measurement": "EC50", "setting": "Hepatitis B virus [2]", "result": 10, "unit": "µg/mL"}, {"measurement": "CC50", "setting": "[3]", "result": "> 200", "unit": "µg/mL"}, {"measurement": "Stability", "setting": "[6]", "result": "Stable"}, {"measurement": "Stability", "setting": "[7]", "result": "Stable"}]}, {"smiles": "CCc1cn2c(nc1=O)O[C@H]1[C@H](F)[C@H]2O[C@@H]1CO", "values": [{"measurement": "inhibition at 10 µg/mL", "setting": "Hepatitis B virus [4]", "result": 65, "unit": "%"}, {"measurement": "EC50", "setting": "Hepatitis B virus [5]", "result": 2.5, "unit": "µg/mL"}, {"measurement": "inhibition at 10 µg/mL", "setting": "Hepatitis B virus [1]", "result": 53, "unit": "%"}, {"measurement": "EC50", "setting": "Hepatitis B virus [2]", "result": 10, "unit": "µg/mL"}, {"measurement": "CC50", "setting": "[3]", "result": "> 200", "unit": "µg/mL"}, {"measurement": "Stability", "setting": "[6]", "result": "Stable"}, {"measurement": "Stability", "setting": "[7]", "result": "Stable"}]}, {"smiles": "Cc1cn([C@H]2C[C@@H](OS(C)(=O)=O)[C@@H](CO)O2)c(=O)[nH]c1=S", "values": [{"measurement": "inhibition at 10 µg/mL", "setting": "Hepatitis B virus [4]", "result": 70, "unit": "%"}, {"measurement": "EC50", "setting": "Hepatitis B virus [5]", "result": 2.5, "unit": "µg/mL"}, {"measurement": "inhibition at 10 µg/mL", "setting": "Hepatitis B virus [1]", "result": 45, "unit": "%"}, {"measurement": "EC50", "setting": "Hepatitis B virus [2]", "result": "> 10", "unit": "µg/mL"}, {"measurement": "CC50", "setting": "[3]", "result": "> 200", "unit": "µg/mL"}]}, {"smiles": "Cc1cn([C@H]2C[C@@H](O)[C@@H](CO)O2)c(=O)[nH]c1=O", "values": [{"measurement": "CC50", "setting": "[3]", "result": "> 200", "unit": "µg/mL"}]}, {"smiles": "O=c1ccn([C@H]2C[C@H](O)[C@@H](CO)O2)c(=O)[nH]1", "note": "[DEOXYURIDINE]", "values": [{"measurement": "inhibition at 10 µg/mL", "setting": "Hepatitis B virus [1]", "result": 0, "unit": "%"}, {"measurement": "CC50", "setting": "[3]", "result": "> 200", "unit": "µg/mL"}]}, {"smiles": "Cc1cn([C@H]2C[C@H](O)[C@@H](CO)O2)c(=O)[nH]c1=O", "note": "[DOXRIBTIMINE]", "values": [{"measurement": "inhibition at 10 µg/mL", "setting": "Hepatitis B virus [1]", "result": 0, "unit": "%"}, {"measurement": "CC50", "setting": "[3]", "result": "> 200", "unit": "µg/mL"}]}, {"smiles": "CCc1cn([C@H]2C[C@H](O)[C@@H](CO)O2)c(=O)[nH]c1=O", "note": "[EDOXUDINE]", "values": [{"measurement": "inhibition at 10 µg/mL", "setting": "Hepatitis B virus [1]", "result": 40, "unit": "%"}, {"measurement": "EC50", "setting": "Hepatitis B virus [2]", "result": "> 10", "unit": "µg/mL"}, {"measurement": "CC50", "setting": "[3]", "result": "> 200", "unit": "µg/mL"}]}, {"smiles": "Nc1ccn([C@@H]2CS[C@H](CO)O2)c(=O)n1", "note": "[LAMIVUDINE]", "values": [{"measurement": "inhibition at 10 µg/mL", "setting": "Hepatitis B virus [4]", "result": 96, "unit": "%"}, {"measurement": "EC50", "setting": "Hepatitis B virus [5]", "result": 0.05, "unit": "µg/mL"}, {"measurement": "inhibition at 10 µg/mL", "setting": "Hepatitis B virus [1]", "result": 88, "unit": "%"}, {"measurement": "EC50", "setting": "Hepatitis B virus [2]", "result": 0.2, "unit": "µg/mL"}, {"measurement": "CC50", "setting": "[3]", "result": "> 200", "unit": "µg/mL"}]}, {"smiles": "O=c1[nH]c(=O)n([C@H]2C[C@H](O)[C@@H](CO)O2)cc1C(F)(F)F", "note": "[TRIFLURIDINE]", "values": [{"measurement": "inhibition at 10 µg/mL", "setting": "Hepatitis B virus [1]", "result": 0, "unit": "%"}, {"measurement": "CC50", "setting": "[3]", "result": "> 200", "unit": "µg/mL"}]}]}
